“Also recorded” adds a separate entry of the source.
How the values were obtained:
Assay type in all cases: physicochemical
[1] = Stability of DAAs in simulated gastric fluid (SGF, pH=2), HPLC
Procedure: FIGS. 17A-17C show stability of DAAs in simulated gastric fluid (SGF, pH=2), according to one set of embodiments. All DAAs were dissolved in SGF and placed in a shaking incubator (200 rpm, 37° C.). Samples were collected at defined time points for up to 4 weeks and analyzed by HPLC to quantify stability. […] FIG. 17A. Stability of sofosbuvir in SGF. FIG. 17B. Stability of daclatasvir in SGF. FIG. 17C. Stability of ribavirin in SGF. Error bars represent SD for n=3 samples in each group.

[2] = Stability of drug-polymer pills in SGF (polymer protection metric); settings: 3 days in SGF, 37° C., 200 rpm, n=3
Procedure: Drug-polymer pills were incubated in a shaking incubator at 37° C. and 200 rpm in 50 mL of SGF for 3 days with fluid replaced every day. Then, drug-polymer pills were transferred to acetonitrile for extraction of drug from the polymer pill. The average of extracted amount (n=3) was normalized to the average of extracted drug from drug-polymer pills placed directly in acetonitrile (n=3) to yield the polymer protection metric plotted. PCL protects 89.75% of sofosbuvir, 82.39% of daclatasvir, and 87.11% of ribavirin. Silicone protected 98.96% of ledipasvir.

[3] = In vitro drug release from individual drug-polymer pills; settings: 37° C., 200 rpm, 50 mL fluid; varying PCL molecular weight, coating, drug loading, SA/V ratio, excipients
From the text: FIGS. 11A-11E show fabrication and in vitro release of direct-acting antivirals (DAAs) from individual drug-polymer pills, according to one set of embodiments. FIG. 11A. Drug-polymer pills are made by mixing drug with either silicone or poly(ε-caprolactone) (PCL) and then casting into a Petri dish or a three-dimensional (3-D) printed mold. Drug-silicone pills are extracted using a biopsy punch, and drug-PCL pills are extracted with a razor blade. Pills are then spray-coated with a pan coater. A cross-sectional image of a PCL-coated drug-PCL pill is shown. FIG. 11B. In vitro release of sofosbuvir from a drug pill in water with varying molecular weight of PCL. FIG. 11C. In vitro release of daclatasvir from a drug pill in water with varying molecular weight of PCL and PCL coating. FIG. 11D. In vitro release of ledipasvir from a drug pill in acetonitrile with varying silicone hardness. FIG. 11E. In vitro release of ribavirin from a drug pill in water with molecular weight of PCL and drug loading percentage. Error bars represent SD for n=3 samples.
LA-DAAS prototyping and in vitro drug release. LA-DAAS were assembled and in vitro drug release was evaluated by High-Performance Liquid Chromatography (HPLC) as previously described, with modifications including novel formulations for DAAs (FIGS. 14A-14B).(17) The following drugs were acquired: sofosbuvir (Hefei Hirisun Pharmatech Co., Ltd, Hefei, China), daclatasvir and ledipasvir (Hangzhou APIChem Technology Co, Ltd., Hangzhou, Zhejiang, China), and ribavirin (ChemShuttle, Hayward, CA). […] Drug loading percentages were determined relative to the final polymer mixture weight: sofosbuvir (50%), daclastasvir (40%), ledipasvir (40%), and ribavirin (40%). […] Drug concentrations were then analyzed using an Agilent 1260 Infinity II HPLC system. […] For evaluation of the safety and residence time of the LA-DAAS, the animals were clinically assessed twice a day for evidence of GI obstruction including inappetence, abdominal distension, lack of stool, and vomiting. […]

Structure (SMILES) | degradation in SGF ([1]; SGF pH=2, 37° C., 200 rpm, within 7 days) [%] | polymer protection (drug extracted after SGF, normalized to pills placed directly in acetonitrile) ([2]; drug-PCL pill) [%] | in vitro release rate from drug-polymer pills (trend, words) [3] | stability in SGF ([1]; SGF pH=2, no HPLC signal detected at t=0) | polymer protection (drug extracted after SGF, normalized to pills placed directly in acetonitrile) ([2]; drug-silicone pill) [%]
CC(C)OC(=O)[C@H](C)N[P@](=O)(OC[C@H]1O[C@@H](n2ccc(=O)[nH]c2=O)[C@](C)(F)[C@@H]1O)Oc1ccccc1 [sofosbuvir] | 95 | 89.75 | increased as the molecular weight of PCL increased from 25,000 to 80,000; also recorded: Increasing the surface area to volume ratio of the pill also increased the sofosbuvir release rate; also recorded: increases the release rate of sofosbuvir; also recorded: Drug release increases as the SA/V ratio increases | – | –
COC(=O)N[C@H](C(=O)N1CC2(CC2)C[C@H]1c1ncc(-c2ccc3c(c2)C(F)(F)c2cc(-c4ccc5nc([C@@H]6[C@H]7CC[C@H](C7)N6C(=O)[C@@H](NC(=O)OC)C(C)C)[nH]c5c4)ccc2-3)[nH]1)C(C)C [ledipasvir] | – | – | faster release rate | degraded immediately in acid | 98.96
NC(=O)c1ncn([C@@H]2O[C@H](CO)[C@@H](O)[C@H]2O)n1 [ribavirin] | – | 87.11 | increased at higher PCL molecular weight and with a higher drug loading percentage | – | –
